According to ChEMBL document CHEMBL5316313, “Discovery of Novel 3-Phenylpiperidine Derivatives Targeting the β-Catenin/B-Cell Lymphoma 9 Interaction as a Single Agent and in Combination with the Anti-PD-1 Antibody for the Treatment of Colorectal Cancer” (J Med Chem, 2023):
The source made the active and inactive calls. No cut-off for these calls is given here.

What was measured:
[1] = Microsomal stability in mouse liver microsomes assessed as half life at […] and measured upto 60 mins by LC-MS/MS analysis; type: ADME, Microsome
[2] = Microsomal stability in human liver microsomes assessed as half life at […] and measured upto 60 mins by LC-MS/MS analysis; type: ADME, Microsome
HEK293 [3] = assay: Induction of apoptosis in Wnt-independent human HEK293 cells assessed as early apoptotic cells at 10 uM incubated for 24 hrs by Annexin V-Alexa Fluor 647/PI staining based flow cytomtery (Rvb=17.4%); type: functional
HEK293 [4] = assay: Induction of apoptosis in Wnt-independent human HEK293 cells assessed as viable cells at 20 uM incubated for 24 hrs by Annexin V-Alexa Fluor 647/PI staining based flow cytomtery (Rvb=70.5%); type: functional; details: read-out: Activity
HCT-116 [5] = assay: Induction of apoptosis in Wnt-dependent human HCT-116 cells assessed as necrotic cells at 20 uM incubated for 24 hrs by Annexin V-Alexa Fluor 647/PI staining based flow cytomtery (Rvb=1.47%); type: functional
HCT-116 [6] = assay: Induction of apoptosis in Wnt-dependent human HCT-116 cells assessed as late apoptotic cells at 10 uM incubated for 24 hrs by Annexin V-Alexa Fluor 647/PI staining based flow cytomtery (Rvb=14.7%); type: functional
HCT-116 [7] = assay: Induction of apoptosis in Wnt-dependent human HCT-116 cells assessed as late apoptotic cells at 20 uM incubated for 24 hrs by Annexin V-Alexa Fluor 647/PI staining based flow cytomtery (Rvb=14.7%); type: functional
HCT-116 [8] = assay: Induction of apoptosis in Wnt-dependent human HCT-116 cells assessed as viable cells at 10 uM incubated for 24 hrs by Annexin V-Alexa Fluor 647/PI staining based flow cytomtery (Rvb=69.5%); type: functional; details: read-out: Activity
CT26 [9] = assay: Induction of apoptosis in Wnt-dependent mouse CT26 cells assessed as late apoptotic cells at 10 uM incubated for 24 hrs by Annexin V-Alexa Fluor 647/PI staining based flow cytomtery (Rvb=9.96%); type: functional
CT26 [10] = assay: Induction of apoptosis in Wnt-dependent mouse CT26 cells assessed as viable cells at 10 uM incubated for 24 hrs by Annexin V-Alexa Fluor 647/PI staining based flow cytomtery (Rvb=70.7%); type: functional; details: read-out: Activity
CT26 [11] = assay: Induction of apoptosis in Wnt-dependent mouse CT26 cells assessed as viable cells at 20 uM incubated for 24 hrs by Annexin V-Alexa Fluor 647/PI staining based flow cytomtery (Rvb=70.7%); type: functional; details: read-out: Activity
CT26 [12] = assay: Antiproliferative activity against Wnt-dependent mouse CT26 cells assessed as cell growth inhibition incubated for 48 hrs by CellTiter-Glo assay; type: functional, cell-based
A549 = assay: Antiproliferative activity against Wnt-independent human A549 cells assessed as cell growth inhibition at 40 uM incubated for 48 hrs by CellTiter-Glo assay; type: functional, cell-based
RKO = assay: Antiproliferative activity against Wnt-independent human RKO cells assessed as cell growth inhibition at 40 uM incubated for 48 hrs by CellTiter-Glo assay; type: functional, cell-based
EL4 = assay: Cytotoxicity against CFSE labeled SIINFEKL activated OT-1 mouse derived EL4 cells assessed as change in antigen specific cell viability at 1 to 10 uM preincubated with compound for 24 hrs followed by co-cultured with C57BL/6 mouse splenocyte derived CD8+ T cells in presence of anti-PD-1 antibody cotreatment by flow cytometry; type: functional, cell-based; details: dose 1-10 µM
CT26 [13] = assay: Antitumor activity against mouse CT26 cells xenografted in BALB/c mouse assessed as tumor growth inhibition at 30 mg/kg, ip QD and measured upto 9 days; type: functional; details: CT26, 216 h, time <= 9 day, read-out: TGI
CT26 [14] = assay: Antitumor activity against mouse CT26 cells xenografted in BALB/c mouse assessed as tumor growth inhibition at 30 mg/kg, ip QD and measured upto 9 days in presence of anti-PD-1 antibody cotreatment at 10 mg/kg,ip BIW; type: functional; details: CT26, 216 h, time <= 9 day, read-out: TGI
[15] = Toxicity in BALB/c mouse xenografted with mouse CT26 cells assessed as body weight loss at 30 mg/kg, ip QD and measured upto 9 days; type: organism-based; details: in vivo, 216 h, time < 9 day
[16] = Toxicity in BALB/c mouse xenografted with mouse CT26 cells assessed as pathological changes in heart at 30 mg/kg, ip QD by hematoxylin and eosin staining based microscopic analysis; type: organism-based; details: in vivo
[17] = Toxicity in BALB/c mouse xenografted with mouse CT26 cells assessed as pathological changes in spleen at 30 mg/kg, ip QD by hematoxylin and eosin staining based microscopic analysis; type: organism-based; details: in vivo
[18] = Toxicity in BALB/c mouse xenografted with mouse CT26 cells assessed as pathological changes in heart at 30 mg/kg, ip QD in presence of anti-PD-1 antibody cotreatment at 10 mg/kg,ip BIW by hematoxylin and eosin staining based microscopic analysis; type: organism-based; details: in vivo
[19] = Toxicity in BALB/c mouse xenografted with mouse CT26 cells assessed as pathological changes in kidney at 30 mg/kg, ip QD in presence of anti-PD-1 antibody cotreatment at 10 mg/kg,ip BIW by hematoxylin and eosin staining based microscopic analysis; type: organism-based; details: in vivo
[20] = AUC (0 to infinity) in Sprague-Dawley rat at 21 mg/kg, ip and measured upto 24 hrs by LC-MS analysis; type: ADME, organism-based; set-up: time < 24 hrs, dose 21 mg/kg, route ip; details: in vivo
CT26 [21] = assay: Synergistic antitumor activity in mouse CT26 cells xenografted in BALB/c mouse assessed as increase in CD8+ T cell infiltration into tumor at 30 mg/kg, ip QD in presence of anti-PD-1 antibody cotreatment at 10 mg/kg,ip BIW by flow cytometry; type: functional, organism-based
CT26 [22] = assay: Antitumor activity in mouse CT26 cells xenografted in BALB/c mouse assessed as increase in GZMB mRNA expression level in tumor at 30 mg/kg, ip QD by qRT-PCR analysis; type: functional, organism-based
CT26 [23] = assay: Synergistic antitumor activity in mouse CT26 cells xenografted in BALB/c mouse assessed as increase in GZMB mRNA expression level in tumor at 30 mg/kg, ip QD in presence of anti-PD-1 antibody cotreatment at 10 mg/kg,ip BIW by qRT-PCR analysis; type: functional, organism-based
CT26 [24] = assay: Synergistic antitumor activity in mouse CT26 cells xenografted in BALB/c mouse assessed as decrease in Foxp3-positive Treg cells in TIME tumor cells at 30 mg/kg, ip QD in presence of anti-PD-1 antibody cotreatment at 10 mg/kg,ip BIW by flow cytomtery; type: functional, organism-based
CT26 [25] = details: Mus musculus, BALB/c, dose 30.0 mg/kg, route ip
Description: In vivo inhibition of Wnt signaling pathway in mouse CT26 cells implanted in BALB/c mouse assessed as reduction in Cd44 mRNA expression level in tumor at 30 mg/kg, ip QD by qRT-PCR analysis

CT26 [26] = assay: cells; details: Mus musculus, CT26, 48 h

## CC(C)c1ccc(-c2cccc(S(=O)(=O)N3CCCC(c4cccc(OC(C)(C)C(=O)NS(=O)(=O)c5ccc(C(F)(F)F)cc5)c4)C3)c2)cc1 (centres undefined)
[1]
  half-life: 20.9 min
[2]
  half-life: 32.1 min
HEK293 [3]
  Activity: 12.1%
HEK293 [4]
  viability at 20 µM: 64.7%
HCT-116 [5]
  Activity: 3.22%
HCT-116 [6]
  Activity: 21.5%
HCT-116 [7]
  Activity: 33.1%
HCT-116 [8]
  viability at 10 µM: 59.8%
CT26 [9]
  Activity: 30.2%
CT26 [10]
  viability at 10 µM: 43.8%
CT26 [11]
  viability at 20 µM: 16%
CT26 [12]
  Activity: Active
A549
  Activity: inactive
RKO
  Activity: inactive
EL4
  Activity: Dose-Dependent Effect
CT26 [13]
  inhibition in vivo at 30 mg/kg: 67.6%
CT26 [14]
  inhibition in vivo at 30 mg/kg: 81.1%
[15]
  Activity: Non-Toxic
[16]
  Activity: Non-Toxic
[17]
  Activity: Non-Toxic
[18]
  Activity: Non-Toxic
[19]
  Activity: Non-Toxic
[20]
  AUC(0-inf): 17400 ng·h/mL
CT26 [21]
  Activity: Active
CT26 [22]
  Activity: Active
CT26 [23]
  Activity: Active
CT26 [24]
  Activity: Active
CT26 [25]
  inhibition: Active
CT26 [26]
  IC50: 69.7 µM
